From patent US11660301B2, “Combination of ATR kinase inhibitors with PARP inhibitors” (Bayer Pharma Aktiengesellschaft, priority 2017, dated 2023)
Marks after values point to notes of the source that are not given here.

Tests used:
NCI-H460 = experiment: In vitro anti-proliferation (Cell Titre-Glo), NCI-H460; type: cell-based; conditions: Homo sapiens; NCI-H460, lung; 96 hours of incubation; mono-treatment
Description: (§1) Tumor cells (Table 1) were propagated in a humidified 37° C. incubator in their respective growth medium supplemented 10% fetal calf serum. […] Test compounds were added to the wells using a Tecan-HP Digital Dispenser. After 96 hours of incubation cell viability was assessed with the Cell Titre-Glo Luminescent Cell Viability Assay (Promega).

[1] = test system: human MDA-MB-436 breast cancer xenograft; experiment: MDA-MB-436 breast cancer xenograft model; type: in vivo, mice
Description: (§2) The oral and intraperitoneal application volume was 10 ml/kg. The time interval between two applications per day was 6-7 h. […] Changes in the body weight were a measure of treatment-related toxicity (>10%=critical, stop of treatment until recovery, >20%=toxic, termination). The tumor area was detected by means of an electronic caliper gauge [length (mm)×width (mm)]. In vivo anti-tumor efficacy is presented as T/C ratio (Treatment/Control) calculated with tumor areas at study end by the formula [(tumor area of treatment group at day x)−(tumor area of treatment group at day before first treatment)]/[(tumor area control group at day x)−(tumor area of control group at day before first treatment)]. […] Statistical analysis was assessed using SigmaStat software. A one-way analysis of variance was performed and differences to the control were compared by a pair-wise comparison procedure (Dunn's method).

MDA-MB-436 = experiment: In vitro anti-proliferation (Cell Titre-Glo), MDA-MB-436; type: cell-based; conditions: Homo sapiens; MDA-MB-436, breast; 96 hours of incubation; mono-treatment
Description: as §1

IGR-OV-1 = experiment: In vitro anti-proliferation (Cell Titre-Glo), IGR-OV-1; type: cell-based; conditions: Homo sapiens, IGROV-1; IGR-OV-1, ovary; 96 hours of incubation; mono-treatment
Description: as §1

[2] = test system: human 22Rv1 prostate cancer xenograft; experiment: 22Rv1 prostate cancer xenograft model; type: in vivo, mice
Description: as §2

HT-144 = experiment: In vitro anti-proliferation (Cell Titre-Glo), HT-144; type: cell-based; conditions: Homo sapiens; HT-144, melanoma; 96 hours of incubation; mono-treatment
Description: as §1

O=C(c1cc(Cc2n[nH]c(=O)c3ccccc23)ccc1F)N1CCN(C(=O)C2CC2)CC1 [Compound B, Olaparib]
IC50 (NCI-H460): 28 µM | anti-tumor efficacy ([1]; MDA-MB-436 human breast cancer model, result in words): good anti-tumor efficacy | Max. weight loss (%) ([1]; body weight vs start of treatment, Compound A 20 mg/kg 2QD p.o. 3 on/4 off, Compound B 50 mg/kg QD i.p.): −3% | T/C ([1]; tumor area at study end, NOD/Scid mice, Compound A 20 mg/kg 2QD p.o. 3 on/4 off, Compound B 50 mg/kg QD i.p.): 0.29^* | IC50 (MDA-MB-436): 6.5 µM | IC50 (IGR-OV-1): 22 µM | anti-tumor efficacy ([2]; 22Rv1 prostate cancer model, result in words): no anti-tumor efficacy | Max. weight loss (%) ([2]; body weight vs start of treatment, Compound A 20 mg/kg 2QD p.o. 3 on/4 off, Compound B 20 mg/kg QD i.p.): −3% | T/C ([2]; tumor area at study end, male Fox Chase SCID mice, Compound A 20 mg/kg 2QD p.o. 3 on/4 off, Compound B 20 mg/kg QD i.p.): 1.18 | IC50 (HT-144): 23 µM
